Where two headings read alike, the source gives them in different places. Marks after values point to notes of the source that are not given here.
What was measured:
CYP = assay: Activation energy differences from experimental regioselectivity of substrates in rapid equilibrium; type: in vitro ADME; design: unit not given here; details: difference in activation energy calculated by the experimental regioselectivity
Source text: Five substrates shown to undergo rapid equilibrium between positions of metabolism have been used to prepare data for regression and then correlation with Eq. 1. The differences in activation energy calculated by the experimental regioselectivity of the substrates, along with the differences in AM1 activation enthalpies, are given in Table 1. Regression of the experimental data gives a slope correction for AM1 activation energies of 0.75±0.20.

CYP1A2 = target: T1, CYP1A2 (Homo sapiens, UniProt P05177); details: pH 7.4
T1 sequence (P05177 1-516): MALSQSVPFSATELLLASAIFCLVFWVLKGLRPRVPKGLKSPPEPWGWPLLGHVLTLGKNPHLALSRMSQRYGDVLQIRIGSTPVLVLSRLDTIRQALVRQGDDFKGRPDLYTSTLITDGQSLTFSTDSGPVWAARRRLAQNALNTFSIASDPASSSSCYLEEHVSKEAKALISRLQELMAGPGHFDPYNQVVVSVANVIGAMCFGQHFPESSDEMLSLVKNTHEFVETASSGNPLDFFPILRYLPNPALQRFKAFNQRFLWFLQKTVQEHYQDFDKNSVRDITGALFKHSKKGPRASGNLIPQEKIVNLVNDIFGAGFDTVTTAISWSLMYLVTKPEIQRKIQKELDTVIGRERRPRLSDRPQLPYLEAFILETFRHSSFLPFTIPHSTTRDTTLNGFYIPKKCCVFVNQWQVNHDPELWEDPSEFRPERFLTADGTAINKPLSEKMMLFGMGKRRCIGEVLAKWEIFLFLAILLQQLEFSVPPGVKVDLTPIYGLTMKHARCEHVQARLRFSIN

CYP2B1 = target: T2, CYP2B1 (Rattus norvegicus, UniProt P00176)
T2 sequence (P00176 1-491): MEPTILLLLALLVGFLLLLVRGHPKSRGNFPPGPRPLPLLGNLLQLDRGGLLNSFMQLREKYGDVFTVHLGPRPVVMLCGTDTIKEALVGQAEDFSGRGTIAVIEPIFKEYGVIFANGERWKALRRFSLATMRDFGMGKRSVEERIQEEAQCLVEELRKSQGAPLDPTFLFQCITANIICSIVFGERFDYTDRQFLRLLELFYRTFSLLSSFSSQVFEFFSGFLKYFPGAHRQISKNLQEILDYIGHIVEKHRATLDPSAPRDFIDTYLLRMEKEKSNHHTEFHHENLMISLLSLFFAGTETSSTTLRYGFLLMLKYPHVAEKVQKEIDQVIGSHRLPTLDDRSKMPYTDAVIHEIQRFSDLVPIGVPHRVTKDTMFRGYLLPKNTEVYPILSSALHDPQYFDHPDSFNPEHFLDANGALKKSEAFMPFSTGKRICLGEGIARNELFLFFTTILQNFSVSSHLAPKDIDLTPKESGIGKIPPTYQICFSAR

CYP2B6 = target: T3, CYP2B6 (Homo sapiens, UniProt P20813); details: human, pH 7.4
T3 sequence (P20813 1-491): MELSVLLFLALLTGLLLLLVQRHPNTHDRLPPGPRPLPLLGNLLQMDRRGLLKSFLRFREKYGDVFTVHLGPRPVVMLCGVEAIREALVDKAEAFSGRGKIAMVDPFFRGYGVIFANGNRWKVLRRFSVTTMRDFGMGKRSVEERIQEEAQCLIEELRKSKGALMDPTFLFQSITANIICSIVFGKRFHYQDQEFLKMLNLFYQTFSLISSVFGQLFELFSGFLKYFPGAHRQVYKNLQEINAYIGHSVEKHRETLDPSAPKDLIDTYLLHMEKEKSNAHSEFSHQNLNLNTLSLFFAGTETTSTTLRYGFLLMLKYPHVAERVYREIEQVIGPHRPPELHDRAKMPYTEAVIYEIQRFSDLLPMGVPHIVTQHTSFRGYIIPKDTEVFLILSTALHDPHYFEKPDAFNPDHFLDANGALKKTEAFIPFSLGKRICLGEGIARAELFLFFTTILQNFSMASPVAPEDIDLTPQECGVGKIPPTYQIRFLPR

CYP2C9 = CYP2C9 (Homo sapiens, UniProt P11712); details: human, pH 7.4
CYP2E1 = CYP2E1 (Homo sapiens, UniProt P05181); details: pH 7.4
multiple CYP isoforms = details: for P, calculated primary KIE, average / S, calculated secondary KIE, average: Avg over isoforms with unmasked KIE; for INTER KIE, average: Avg over isoforms with unmasked KIE (p-MA: 1A2, 2B1, 2B6, 2E1; o-MA: six isoforms; α-ClMpX: 1A2, 2B1, 2B6); for Intramolecular KIE, average: Avg over the CYP isoforms tested; for Intramolecular KIE, range of values: range over the CYP isoforms tested

Sequence of CYP2E1 (P05181 whole entry, canonical isoform): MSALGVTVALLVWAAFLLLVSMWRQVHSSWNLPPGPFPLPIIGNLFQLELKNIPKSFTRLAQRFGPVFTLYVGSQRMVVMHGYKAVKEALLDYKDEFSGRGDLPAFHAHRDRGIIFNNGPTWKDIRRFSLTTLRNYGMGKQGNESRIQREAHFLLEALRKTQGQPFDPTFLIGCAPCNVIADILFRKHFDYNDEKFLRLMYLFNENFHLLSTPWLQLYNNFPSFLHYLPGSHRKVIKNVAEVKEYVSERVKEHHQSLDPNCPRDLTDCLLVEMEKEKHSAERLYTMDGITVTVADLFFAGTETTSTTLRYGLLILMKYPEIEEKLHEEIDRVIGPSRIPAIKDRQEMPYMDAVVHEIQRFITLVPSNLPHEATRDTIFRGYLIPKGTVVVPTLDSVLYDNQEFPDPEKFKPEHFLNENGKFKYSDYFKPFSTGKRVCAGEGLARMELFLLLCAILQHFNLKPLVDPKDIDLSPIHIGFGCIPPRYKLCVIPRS
Sequence of CYP2C9 (P11712 whole entry): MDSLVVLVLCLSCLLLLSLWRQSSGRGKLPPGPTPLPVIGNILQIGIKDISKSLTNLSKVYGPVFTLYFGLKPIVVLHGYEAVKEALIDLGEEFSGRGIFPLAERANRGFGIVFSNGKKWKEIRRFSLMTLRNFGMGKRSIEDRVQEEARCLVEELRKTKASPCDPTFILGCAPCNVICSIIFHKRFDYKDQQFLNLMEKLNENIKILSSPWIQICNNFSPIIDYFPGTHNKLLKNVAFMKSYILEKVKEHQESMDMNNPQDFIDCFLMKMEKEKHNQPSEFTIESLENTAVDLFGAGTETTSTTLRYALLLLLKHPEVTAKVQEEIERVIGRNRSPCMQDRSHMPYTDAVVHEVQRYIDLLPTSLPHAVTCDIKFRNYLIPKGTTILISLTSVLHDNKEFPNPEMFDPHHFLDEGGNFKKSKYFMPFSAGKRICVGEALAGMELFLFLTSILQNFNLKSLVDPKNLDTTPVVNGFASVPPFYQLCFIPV

Structure (SMILES): COc1ccc(C)cc1 [p-Methylanisole, p-methylanisole]
- ΔΔG (experimental) (CYP): 1.1
- INTER KIE (combined intermolecular competitive KIE) (CYP1A2): 5.9
- P, calculated primary KIE (CYP1A2): 5.0
- S, calculated secondary KIE (CYP1A2): 1.08
- INTER KIE (combined intermolecular competitive KIE) (CYP2B1): 5.8
- Intramolecular KIE (kH/kD) (CYP2B1): 3.69
- P, calculated primary KIE (CYP2B1): 4.3
- S, calculated secondary KIE (CYP2B1): 1.16
- nmol p-CR (CYP2B1; rat, pH 7.4): 2.0* nmol
- nmol p-MBA (CYP2B1; rat, pH 7.4): 4.2* nmol
- nmol total TP (CYP2B1; rat, pH 7.4): 6.2* nmol
- INTER KIE (combined intermolecular competitive KIE) (CYP2B6): 6.8
- Intramolecular KIE (kH/kD) (CYP2B6): 3.74
- P, calculated primary KIE (CYP2B6): 4.6
- S, calculated secondary KIE (CYP2B6): 1.22
- nmol p-CR (CYP2B6): 2.10* nmol
- nmol p-MBA (CYP2B6): 7.0* nmol
- nmol total TP (CYP2B6): 9.1 nmol
- INTER KIE (combined intermolecular competitive KIE) (CYP2C9): 2.6
- INTER KIE (combined intermolecular competitive KIE) (CYP2E1): 6.6
- Intermolecular Competitive ^D(V/K) (CYP2E1): 2.57 ± 0.02
- Intermolecular Noncompetitive ^D(V/K) (CYP2E1): 2.60 ± 0.01
- Intermolecular Noncompetitive ^DV (CYP2E1): 2.28 ± 0.10
- P, calculated primary KIE (CYP2E1): 4.9
- S, calculated secondary KIE (CYP2E1): 1.16
- nmol p-CR (CYP2E1): 5.6* nmol
- nmol p-MBA (CYP2E1): 23.8* nmol
- nmol total TP (CYP2E1): 29.4 nmol
- P, calculated primary KIE, average (multiple CYP isoforms): 5
- S, calculated secondary KIE, average (multiple CYP isoforms): 1.2
- INTER KIE, average (multiple CYP isoforms): 6
- INTER KIE, average (multiple CYP isoforms; listed as p-MA): 6±1
- P, calculated primary KIE, average (multiple CYP isoforms; listed as p-MA): 5±1
- S, calculated secondary KIE, average (multiple CYP isoforms; listed as p-MA): 1.15±0.22
- Intramolecular KIE, average (multiple CYP isoforms): 4.4
- Intramolecular KIE, average (multiple CYP isoforms; listed as p-MA): 4.4±0.3
- Intramolecular KIE, range of values (multiple CYP isoforms): 3.69-6.08
- Combined intermolecular competitive KIE, range (multiple CYP isoforms; range over the isoforms): 5.9-6.8
- P (primary KIE), range (multiple CYP isoforms; range over the isoforms): 4.3-5.0
- S (secondary KIE), range (multiple CYP isoforms; range over the isoforms): 1.08-1.22

Structure (SMILES): COc1ccccc1C [o-Methylanisole, o-methylanisole]
- ΔΔG (experimental) (CYP): 0.3
- INTER KIE (combined intermolecular competitive KIE) (CYP1A2): 9.15
- Intramolecular KIE (kH/kD) (CYP1A2): 5.7
- Metabolite profile, Phenol (CYP1A2): 54 Mol-%
- Metabolite profile, o-CR (CYP1A2): 12 Mol-%
- Metabolite profile, o-MBA (CYP1A2): 34 Mol-%
- P, calculated primary KIE (CYP1A2): 6.7
- Ratio of ring hydroxylation para to the methoxy group to ODAlk (CYP1A2): 4.5
- S, calculated secondary KIE (CYP1A2): 1.17
- nmol 4M3MPh (CYP1A2): 9.7* nmol
- nmol TP (CYP1A2): 18.0 nmol
- nmol o-CR (CYP1A2): 2.2* nmol
- nmol o-MBA (CYP1A2): 6.1* nmol
- INTER KIE (combined intermolecular competitive KIE) (CYP2B1): 9.3
- Intramolecular KIE (kH/kD) (CYP2B1): 5.78
- P, calculated primary KIE (CYP2B1): 6.8
- S, calculated secondary KIE (CYP2B1): 1.2
- Metabolite profile, Phenol (CYP2B1; rat, pH 7.4): 63 Mol-%
- Metabolite profile, o-CR (CYP2B1; rat, pH 7.4): 18 Mol-%
- Metabolite profile, o-MBA (CYP2B1; rat, pH 7.4): 19 Mol-%
- Ratio of ring hydroxylation para to the methoxy group to ODAlk (CYP2B1; rat, pH 7.4): 3.5
- nmol 4M3MPh (CYP2B1; rat, pH 7.4): 9.1* nmol
- nmol TP (CYP2B1; rat, pH 7.4): 13* nmol
- nmol o-CR (CYP2B1; rat, pH 7.4): 2.3* nmol
- nmol o-MBA (CYP2B1; rat, pH 7.4): 2.37* nmol
- INTER KIE (combined intermolecular competitive KIE) (CYP2B6): 10.43
- Intramolecular KIE (kH/kD) (CYP2B6): 6.78
- Metabolite profile, o-CR (CYP2B6): 56 Mol-%
- Metabolite profile, o-MBA (CYP2B6): 29 Mol-%
- P, calculated primary KIE (CYP2B6): 7.8
- Ratio ODAlk:Arom (CYP2B6): 0.3
- S, calculated secondary KIE (CYP2B6): 1.15
- nmol 4M3MPh (CYP2B6): 2.8 nmol
- nmol TP (CYP2B6): 19 nmol
- nmol o-CR (CYP2B6): 10.7* nmol
- nmol o-MBA (CYP2B6): 5.5* nmol
- INTER KIE (combined intermolecular competitive KIE) (CYP2C9): 12
- Intramolecular KIE (kH/kD) (CYP2C9): 6.3
- Metabolite profile, Phenol (CYP2C9): 32 Mol-%
- Metabolite profile, o-CR (CYP2C9): 22 Mol-%
- Metabolite profile, o-MBA (CYP2C9): 46 Mol-%
- P, calculated primary KIE (CYP2C9): 8
- Ratio of ring hydroxylation para to the methoxy group to ODAlk (CYP2C9): 1.5
- S, calculated secondary KIE (CYP2C9): 1.2
- nmol TP (CYP2C9): 6.9* nmol
- nmol o-CR (CYP2C9): 1.5* nmol
- nmol o-MBA (CYP2C9): 3.1* nmol
- INTER KIE (combined intermolecular competitive KIE) (CYP2E1): 10
- Intramolecular KIE (kH/kD) (CYP2E1): 5.95
- Metabolite profile, Phenol (CYP2E1): 57 Mol-%
- Metabolite profile, o-CR (CYP2E1): 16 Mol-%
- Metabolite profile, o-MBA (CYP2E1): 27 Mol-%
- P, calculated primary KIE (CYP2E1): 7.1
- Ratio of ring hydroxylation para to the methoxy group to ODAlk (CYP2E1): 3.5
- S, calculated secondary KIE (CYP2E1): 1.19
- nmol 4M3MPh (CYP2E1): 13* nmol
- nmol TP (CYP2E1): 23* nmol
- nmol o-CR (CYP2E1): 3.8* nmol
- nmol o-MBA (CYP2E1): 6.1* nmol
- ΔΔG^‡ corresponding to regioselectivity BzH:ODAlk (multiple CYP isoforms): 0.1-0.65
- Ring hydroxylation products, share of total products (multiple CYP isoforms; 20 min, […], pH 7.4): 30-60%
- P, calculated primary KIE, average (multiple CYP isoforms): 8
- S, calculated secondary KIE, average (multiple CYP isoforms): 1.2
- INTER KIE, average (multiple CYP isoforms): 11
- INTER KIE, average (multiple CYP isoforms; listed as o-MA): 11±3
- P, calculated primary KIE, average (multiple CYP isoforms; listed as o-MA): 8±3
- S, calculated secondary KIE, average (multiple CYP isoforms; listed as o-MA): 1.2±0.4
- Intramolecular KIE, average (multiple CYP isoforms): 6.2
- Intramolecular KIE, average (multiple CYP isoforms; listed as o-MA): 6.2±0.6
- Intramolecular KIE, range of values (multiple CYP isoforms): 5.7-6.9
- P (primary KIE), range (multiple CYP isoforms; range over the isoforms): 6.7-8.9
- S (secondary KIE), range (multiple CYP isoforms; range over the isoforms): 1.15-1.29
- Regioselectivity BzH:ODAlk, range (multiple CYP isoforms; range over the isoforms, listed as o-MA): 1.2-2.9
